Experiments:
E. coli = assay: Disinfection efficacy of PFA in wastewater samples, colony count (USEPA method 10029); format: cell-based; details: S2 (50% secondary + 50% primary-only wastewater, 30 min contact) versus S1 (secondary-treated wastewater, 90 min contact); FIG. 4B
Method: (§1) The disinfection efficacy of PFA against fecal coliform and E. coli was assessed in wastewater (WW) that had undergone secondary treatment (S1), and in a mixed wastewater sample comprising 50% wastewater that had undergone secondary treatment and 50% wastewater that had undergone primary treatment without secondary treatment (S2). The S2 sample would have inevitably contained higher levels of TSS, increased organic matter and increased microbial content.
(§2) WW samples were collected and stored at 4° C. […] until use (within 1 to 3 days). A PFA solution was prepared immediately prior to use by mixing 2.5 mL of 35% hydrogen peroxide with 2.5 mL of DEX®-A375 (a mixture of formic and sulfuric acids). The resultant mixture was incubated for 5 minutes at 4° C. and subsequently for 25 minutes at room temperature to complete formation of the 9.5% PFA solution. The 9.5% PFA solution was diluted to 950 mg/L by adding 0.2 mL of the 9.5% PFA solution to 19.8 mL distilled water.
(§3) WW samples were dosed with PFA to determine efficacy after set contact times. A shorter 30 minute contact time was used for the S2 samples to emulate the shorter contact times that would occur in a CSO event when the volume and rate of flow of water through the WW treatment system is increased. […] After incubation, the number of colonies was counted. […]

fecal coliform = assay: as above; format: cell-based; details: S2 (50% secondary + 50% primary-only wastewater, 30 min contact) versus S1 (secondary-treated wastewater, 90 min contact); FIG. 4A
Method: as §1, §2, §3

[1] = Residual PFA over time in dosed wastewater samples (CHEMetrics test kit); format: physicochemical; details: doses 0.5, 1 and 2 ppm; S2 samples versus S1 samples; FIG. 5
Method: Varying doses of PFA (0.5 ppm, 1 ppm, and 2 ppm) were dosed into S1 and S2 wastewater samples as described in Example 1. Residual levels of PFA were measured using a CHEMetrics test kit for PAA with vacuum ampules detecting in the 0-5 ppm range (Maffettone, 2020). PFA values were obtained by multiplying the PAA results by 0.82 (Maffettone, 2020). The factor of 0.82 for conversion of PAA to PFA corresponds to the molecular weight ratio of PFA (62.02 g/mol) to PAA (76.05 g/mol). Due to the fast degradation of PFA, residual PFA concentrations were determined immediately following the sample collection.

O=COO [PFA, performic acid]
disinfection efficacy against E. coli (E. coli): significantly reduced | disinfection efficacy against fecal coliform (fecal coliform): significantly reduced | residual PFA levels over time (degradation in wastewater) [1]: decrease more rapidly over time in S2 samples than in S1 samples
